Assay results reported in ChEMBL document CHEMBL1201862, “PubChem BioAssay data set” (2004).
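Step 1: Grow cells in 96-well plates. Step 2: Expose to compound for 48 hours at 5 concentrations. Step 3: Interpolate endpoints linearly; if unreached, use highest concentration. Here, GI50 denotes the concentration required for 50% inhibition of growth.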 The source made the active and inactive calls. No stated cut-off is given here; in the data, active = GI50 up to about 1.1 µM and inactive = higher.

Key:
Assay in all cases: growth of human tumour cells (NCI), 48 h
[1] = test system: DMS-114
[2] = test system: HCT-15
[3] = test system: OVCAR-5
[4] = test system: SK-MEL-28
[5] = test system: CAKI-1
[6] = test system: OVCAR-4
[7] = test system: SNB-78
[8] = test system: A498
[9] = test system: XF498
[10] = test system: NCI-H460
[11] = test system: NCI-H522
[12] = test system: ACHN
[13] = test system: U-251
[14] = test system: NCI-H23
[15] = test system: SF-268
[16] = test system: HCT-116
[17] = test system: UO-31
[18] = test system: UACC-257
[19] = test system: OVCAR-3
[20] = test system: KM-20L2
[21] = test system: HCC 2998
[22] = test system: LXFL 529
[23] = test system: SF-539
[24] = test system: DMS-273
[25] = test system: OVCAR-8
[26] = test system: TK-10
[27] = test system: SR
[28] = test system: HOP-18
[29] = test system: EKVX
[30] = test system: SK-MEL-5
[31] = test system: M14
[32] = test system: RXF 393
[33] = test system: UACC-62
[34] = test system: IGROV-1
[35] = test system: Malme-3M
[36] = test system: HOP-62
[37] = test system: MOLT-4
[38] = test system: HT-29
[39] = test system: COLO 205
[40] = test system: SF-295
[41] = test system: SNB-75
[42] = test system: DLD-1
[43] = test system: HOP-92
[44] = test system: LOX IMVI
[45] = test system: 786-0
[46] = test system: SNB-19
[47] = test system: HL-60
[48] = test system: SK-OV-3
[49] = test system: SK-MEL-2
[50] = test system: K562
[51] = test system: NCI-H226
[52] = test system: RPMI-8226
[53] = test system: SN12C
[54] = test system: A549
[55] = test system: CCRF-CEM
[56] = test system: SW-620
[57] = test system: KM12
[58] = test system: M19-MEL

`COC(=O)C1=C(C(=O)OC)C2(OC(C)=O)c3ccccc3-c3ccccc3C12` (configuration not stated) was tested, and the GI50 [1] was 5.37 µM (inactive), the GI50 [2] was 5.26 µM and the GI50 [3] was 14.2 µM (inactive). For the same compound, the GI50 [4] was 5.27 µM (inactive), the GI50 [5] was 2.16 µM (inactive) and the GI50 [6] was 2.47 µM (inactive). The GI50 [7] was 4.95 µM (inactive), the GI50 [8] was 18.1 µM (inactive) and the GI50 [9] was 12.4 µM (inactive). The GI50 [10] was 17 µM (inactive), the GI50 [11] was 1.44 µM (inactive) and the GI50 [12] was 2.54 µM (inactive). The GI50 [13] was 7.87 µM (inactive), the GI50 [14] was 11.5 µM (inactive) and the GI50 [15] was 7.62 µM (inactive). For the same compound, the GI50 [16] was 3.66 µM (inactive), the GI50 [17] was 4.68 µM (inactive) and the GI50 [18] was 5.96 µM (inactive). For the same compound, the GI50 [19] was 5.53 µM (inactive), the GI50 [20] was 6.15 µM (inactive) and the GI50 [21] was 16.7 µM (inactive). For the same compound, the GI50 [22] was 1.7 µM (inactive), the GI50 [23] was 17.2 µM (inactive) and the GI50 [24] was 4.98 µM (inactive). For the same compound, the GI50 [25] was 5.93 µM (inactive), the GI50 [26] was 3.6 µM (inactive) and the GI50 [27] was 2.33 µM (inactive). For the same compound, the GI50 [28] was 5.2 µM (inactive), the GI50 [29] was 10.6 µM (inactive) and the GI50 [30] was 14.1 µM (inactive). The GI50 [31] was 4.79 µM (inactive), the GI50 [32] was 4.8 µM (inactive) and the GI50 [33] was 11 µM (inactive). For the same compound, the GI50 [34] was 3.74 µM (inactive), the GI50 [35] was 2.25 µM (inactive) and the GI50 [36] was 20 µM (inactive). The GI50 [37] was 1.96 µM (inactive), the GI50 [38] was 5.47 µM (inactive) and the GI50 [39] was 1.63 µM (inactive). For the same compound, the GI50 [40] was 17.9 µM (inactive), the GI50 [41] was 11.7 µM (inactive) and the GI50 [42] was 1.7 µM (inactive). For the same compound, the GI50 [43] was 1.77 µM (inactive), the GI50 [44] was 5.09 µM (inactive) and the GI50 [45] was 4.23 µM (inactive). The GI50 [46] was > 40.7 µM (inactive), the GI50 [47] was 4.85 µM (inactive) and the GI50 [48] was 15.5 µM (inactive). For the same compound, the GI50 [49] was 14.5 µM (inactive), the GI50 [50] was 1.83 µM (inactive) and the GI50 [51] was 16.5 µM (inactive). For the same compound, the GI50 [52] was 2.62 µM (inactive), the GI50 [53] was 4.89 µM (inactive) and the GI50 [54] was 17.3 µM (inactive). The GI50 [55] was 0.733 µM (active), the GI50 [56] was 1.66 µM (inactive) and the GI50 [57] was 12.5 µM (inactive). For the same compound, the GI50 [58] was 4.56 µM (inactive).
In the case of `COc1ccc2occ(CCC(=O)O)c2c1`, the GI50 [1] is reported as > 100 µM (inactive), the GI50 [2] is reported as over 100 µM and the GI50 [4] is reported as > 100 µM (inactive). For the same compound, the GI50 [5] was > 100 µM (inactive), the GI50 [6] was > 100 µM (inactive) and the GI50 [7] was > 100 µM (inactive). For the same compound, the GI50 [8] was > 100 µM (inactive), the GI50 [9] was > 100 µM (inactive) and the GI50 [10] was > 100 µM (inactive). For the same compound, the GI50 [12] was > 100 µM (inactive), the GI50 [13] was > 100 µM (inactive) and the GI50 [14] was > 100 µM (inactive). For the same compound, the GI50 [16] was > 100 µM (inactive), the GI50 [18] was > 100 µM (inactive) and the GI50 [19] was > 100 µM (inactive). The GI50 [20] was > 100 µM (inactive), the GI50 [21] was > 100 µM (inactive) and the GI50 [22] was > 100 µM (inactive). The GI50 [23] was > 100 µM (inactive), the GI50 [24] was > 100 µM (inactive) and the GI50 [25] was > 100 µM (inactive). The GI50 [26] was > 100 µM (inactive), the GI50 [28] was > 100 µM (inactive) and the GI50 [29] was > 100 µM (inactive). The GI50 [30] was > 100 µM (inactive), the GI50 [31] was > 100 µM (inactive) and the GI50 [32] was > 100 µM (inactive). The GI50 [33] was > 100 µM (inactive), the GI50 [34] was > 100 µM (inactive) and the GI50 [36] was > 100 µM (inactive). The GI50 [37] was > 100 µM (inactive), the GI50 [38] was > 100 µM (inactive) and the GI50 [39] was > 100 µM (inactive). For the same compound, the GI50 [40] was > 100 µM (inactive), the GI50 [41] was > 100 µM (inactive) and the GI50 [42] was > 100 µM (inactive). The GI50 [43] was > 100 µM (inactive), the GI50 [44] was > 100 µM (inactive) and the GI50 [45] was > 100 µM (inactive). The GI50 [46] was > 100 µM (inactive), the GI50 [47] was > 100 µM (inactive) and the GI50 [48] was > 100 µM (inactive). The GI50 [50] was > 100 µM (inactive), the GI50 [52] was > 100 µM (inactive) and the GI50 [53] was > 100 µM (inactive). The GI50 [54] was > 100 µM (inactive), the GI50 [55] was > 100 µM (inactive) and the GI50 [56] was > 100 µM (inactive). For the same compound, the GI50 [58] was > 100 µM (inactive).
In the case of `O=C(Oc1ccc(Cl)cc1[N+](=O)[O-])c1ccccc1`, the GI50 [1] is reported as > 100 µM (inactive), the GI50 [2] is reported as over 100 µM and the GI50 [3] is reported as 57.1 µM (inactive). The GI50 [4] was > 100 µM (inactive), the GI50 [6] was 43.4 µM (inactive) and the GI50 [7] was > 100 µM (inactive). For the same compound, the GI50 [8] was > 100 µM (inactive), the GI50 [9] was 0.0435 µM (active) and the GI50 [10] was > 100 µM (inactive). For the same compound, the GI50 [12] was > 100 µM (inactive), the GI50 [13] was 38.5 µM (inactive) and the GI50 [14] was 69.2 µM (inactive). For the same compound, the GI50 [15] was > 100 µM (inactive), the GI50 [16] was > 100 µM (inactive) and the GI50 [17] was 86.5 µM (inactive). The GI50 [18] was > 100 µM (inactive), the GI50 [19] was 69.5 µM (inactive) and the GI50 [20] was > 100 µM (inactive). The GI50 [21] was > 100 µM (inactive), the GI50 [22] was > 100 µM (inactive) and the GI50 [23] was > 100 µM (inactive). For the same compound, the GI50 [24] was > 100 µM (inactive), the GI50 [25] was > 100 µM (inactive) and the GI50 [26] was > 100 µM (inactive). For the same compound, the GI50 [27] was > 100 µM (inactive), the GI50 [28] was > 100 µM (inactive) and the GI50 [29] was > 100 µM (inactive). For the same compound, the GI50 [30] was 16 µM (inactive), the GI50 [31] was > 100 µM (inactive) and the GI50 [32] was 24.1 µM (inactive). The GI50 [33] was > 100 µM (inactive), the GI50 [34] was > 100 µM (inactive) and the GI50 [35] was > 100 µM (inactive). The GI50 [36] was > 100 µM (inactive), the GI50 [37] was > 100 µM (inactive) and the GI50 [38] was > 100 µM (inactive). The GI50 [39] was > 100 µM (inactive), the GI50 [40] was > 100 µM (inactive) and the GI50 [41] was 90.8 µM (inactive). The GI50 [42] was > 100 µM (inactive), the GI50 [43] was > 100 µM (inactive) and the GI50 [44] was > 100 µM (inactive). The GI50 [46] was > 100 µM (inactive), the GI50 [47] was 65.6 µM (inactive) and the GI50 [48] was > 100 µM (inactive). For the same compound, the GI50 [49] was > 100 µM (inactive), the GI50 [50] was > 100 µM (inactive) and the GI50 [51] was 92.9 µM (inactive). For the same compound, the GI50 [52] was 91.4 µM (inactive), the GI50 [53] was > 100 µM (inactive) and the GI50 [54] was > 100 µM (inactive). The GI50 [55] was 73.6 µM (inactive), the GI50 [56] was > 100 µM (inactive) and the GI50 [57] was > 100 µM (inactive). For the same compound, the GI50 [58] was > 100 µM (inactive).
